TGI data for eight compounds are collected here from PubChem BioAssay (NCI).

As a reminder, the TGI is the concentration at which net growth stops. Read a high TGI as lower sensitivity of the cells.

Holding throughout (test): DTP human tumour cell line panel, 48 h
Test [1] concerns DU-145 prostate.
The test system of test [2] is RXF 393 renal.
In test [3] the test system is COLO 205 colon.
For test [4], the system named is PC-3 prostate.
The test system of test [5] is NCI-H460 lung.
Test [6] relates to MDA-MB-435.
Test [7] concerns SNB-19 CNS.
In test [8] the test system is HCC-2998 colon.
Test [9] has as its system OVCAR-5 ovarian.
Test [10] relates to RPMI-8226 leukemia.
For test [11], the system named is HCT-116 colon.
The subject of test [12] is K-562 leukemia.
Test [13] concerns M14 melanoma.
In test [14] the test system is MCF7 breast.
Test [15] concerns SN12C renal.
The test system of test [16] is U251 CNS.
Test [17] concerns MDA-MB-231 breast.
Test [18] has as its system 786-0 renal.
Test [19] concerns HOP-62 NSCLC.

The structures appear in SMILES notation.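 96-well plates; 48 h exposure; 5 concentrations. Endpoints by linear interpolation between flanking doses. Not reached: highest tested concentration assigned. TGI: total growth inhibition.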

Consider `C(=NC12CC3CC(CC(C3)C1)C2)C1CCCCC1`, for which the concentration for total growth inhibition (TGI) in [1], in [2], in test [3], in [4], in [5] and in test [6] was over 100 µM throughout. Moreover, the TGI in test [7], in test [8], in test [9], in test [10], in [11] and in test [12] was over 100 µM each time. Besides, the TGI in test [13], in test [14], in test [15], in test [16], in test [17] and in [18] was over 100 µM in each case. For the same compound, in test [19], the TGI was over 100 µM.

Turning to `CC1C(OS(=O)(=O)c2ccc3[nH]c(=S)sc3c2)CC2C3(C)CCC2(C(C)C(=O)O)C(O)C13` (configuration not stated), the TGI was 40.4 µM in test [1]; 61.2 µM in test [2]; 38 µM in [3]; over 100 µM in test [4]; over 100 µM in test [5]; 47.8 µM in test [6]. The TGI is over 100 µM in [7]; over 100 µM in [8]; 93.3 µM in test [9]; 40.8 µM in [10]; 27.3 µM in test [11]; over 100 µM in test [12]. Further, the concentration for total growth inhibition (TGI) in test [13] was 84.1 µM; in test [14], over 100 µM; in test [15] it was over 100 µM; in [16], 38.6 µM; in test [17], over 100 µM; in test [18] it was 56.8 µM. This compound also came in with a TGI in test [19] of 66.5 µM.

For the compound `COc1ccc(NC(=S)c2ccc([N+](=O)[O-])o2)cc1`, the TGI was 10.2 µM in [1]; 5.01 µM in test [2]; 2.75 µM in test [3]; 2.97 µM in test [4]; 5.72 µM in test [5]; 5.66 µM in [6]. Besides, the TGI was determined as 11.7 µM in test [7]; 3 µM in test [8]; 9.53 µM in test [9]; 4.72 µM in test [10]; 3.12 µM in test [11]; 7.55 µM in test [12]. Further, the TGI in test [13] was found to be 7.28 µM; in [14], 4.42 µM; in test [15], 4.85 µM; in test [16], 2.55 µM; in test [17], 6.35 µM; in test [18] it was 4.99 µM. The compound also came in with a concentration for total growth inhibition (TGI) in [19] of 8.26 µM.

With `Fc1ccc2c(c1)SC1=Nc3sc4cc(F)ccc4[n+]3CN12`, the total growth inhibition concentration (TGI) was over 100 µM in test [1]; 86.8 µM in test [2]; over 100 µM in [3]; over 100 µM in test [4]; over 100 µM in [5]; over 100 µM in test [6]. Also, the TGI in test [7] was 38.4 µM; in test [8], 47.5 µM; in test [9] it was over 100 µM; in test [10] it was 8.45 µM; in test [11] it was over 100 µM; in test [12], 43.9 µM. The TGI in test [13] is over 100 µM; in test [14] it was over 100 µM; in test [15], 51.2 µM; in test [16], 46.3 µM; in test [17] it was 44.3 µM; in test [18], 47.4 µM. For the same compound, the TGI in [19] came to 56.1 µM.

On to `CCOc1ccc(NC(=O)C(=O)C(/C(=N/N)C(=O)OC)c2nc3ccc([N+](=O)[O-])cc3[nH]c2=O)cc1` (configuration not stated), for which the TGI in [1], in test [2], in test [3], in [4], in test [5] and in test [6] was over 100 µM in each case. For the same compound, the TGI in [7], in test [8], in test [9], in test [10], in [11] and in test [12] was over 100 µM throughout. The TGI in test [13], in [14], in [15], in test [16], in test [17] and in test [18] was over 100 µM throughout. For the same compound, the TGI in test [19] was over 100 µM.

Consider `Nc1ccc2c(=S)c3ccccc3[nH]c2c1`, for which the TGI in test [1] is over 100 µM; in [2], 98.9 µM; in [3], over 100 µM; in test [4], over 100 µM; in test [5] it was over 100 µM; in test [6], over 100 µM. Also, the TGI in test [7], in test [8], in test [9], in test [10], in [11] and in [12] was over 100 µM throughout. For the same compound, the total growth inhibition concentration (TGI) in [13] was over 83.3 µM; in test [14], over 100 µM; in test [15], over 100 µM; in test [16], over 100 µM; in test [17] it was over 100 µM; in test [18], over 100 µM. In test [19], this compound gave a TGI of over 73 µM.

For `CCCN1C(=O)CN(S(=O)(=O)c2ccc(Cl)cc2)C1=O`, the concentration for total growth inhibition (TGI) in test [1], in [2], in [3], in [4], in test [5] and in test [6] was over 100 µM each time. The TGI in [7], in [8], in [9], in test [10], in [11] and in test [12] was over 100 µM in each case. For the same compound, the TGI in [13], in test [14], in test [15], in [16], in test [17] and in [18] was over 100 µM in each case. In test [19], this compound showed a TGI of over 100 µM.

For the compound `CCOC(=O)c1cn(-c2ccc([N+](=O)[O-])cc2)c(=S)n2c1nc1ccccc12`, the TGI is over 100 µM in test [1]; over 100 µM in test [2]; 48.5 µM in [3]; over 100 µM in test [4]; over 100 µM in test [5]; over 100 µM in test [6]. Further, the TGI in test [7], in test [8], in test [9], in test [10], in test [11] and in test [12] was over 100 µM each time. In addition, the total growth inhibition concentration (TGI) in test [13], in test [14], in test [15], in [16], in [17] and in [18] was over 100 µM each time. The compound also registered a TGI in test [19] of over 100 µM.
